Measurements reported in patent publication EP4810038A1, “METHOD FOR TREATING ALK-POSITIVE OR ROS1-POSITIVE NON-SMALL CELL LUNG CANCER” (Shenzhen TargetRx Co., Ltd., priority 2023, dated 2025).
“And” between values parts separate entries of the source, which are not always exact repeats. Equal entries are not always repeated.

How the values were obtained:
[1] = system: ALK-positive advanced NSCLC who had failed a second-generation ALK inhibitor; experiment: Phase II single-arm trial, 60 mg QD: whole-body tumor efficacy (IRC assessment); assay type: in vivo, human
Text: Variable of the research: whether the subjects achieved objective response (CR/PR) during the treatment, as assessed by the independent review committee (IRC).

[2] = system: Ba/F3 (SLC34A2-ROS1 G2032R) cell line; experiment: Anti-tumor effect in subcutaneous transplanted Ba/F3 (SLC34A2-ROS1 G2032R) model; assay type: in vivo, NOD-SCID mice; settings: for average tumor volume: 21st day after administration
Text: Housing environment: SPF grade.
Environmental conditions of the housing room of the laboratory animals: All the laboratory animals were housed in individually ventilated cages with constant temperature and constant humidity. […] The animals were continuously provided with cobalt-60 irradiated complete pelleted mouse feed with unlimited free access. The animals drank tap water (used after being autoclaved), which was provided continuously from water bottles, allowing for free access. The cages for raising the mice were polysulfone mice cages, which were autoclaved before use, and measured 325 mm × 210 mm × 180 mm. The bedding was autoclaved corn cobs. Each cage contained 5 animals. The cage cards were marked with the IACUC approval number, experiment number, start time of the experiment, project leader, experimenters, source of the animals, group, and animal number. The laboratory animals were marked with ear tags or ear labels.
The Ba/F3 (SLC34A2-ROS1 G2032R) cells in the exponential growth phase were collected, resuspended in PBS to a suitable concentration, and then subcutaneously inoculated into nude mice for tumor formation.
Assay method: Female NOD/SCID mice were subcutaneously inoculated with 2×10^6 Ba/F3 (SLC34A2-ROS1 G2032R) cells on the right side to establish a subcutaneous tumor transplantation model. […] The mice were administered orally via gavage once daily. The efficacy was evaluated based on the relative tumor growth inhibition rate (TGI), and the safety was evaluated based on the changes in the body weight and mortality of the animals.
(§1) All the procedures, including drug administration, tumor measurement, weight measurement, etc., were performed in a biosafety cabinet or on a clean bench.
The relative tumor growth rate (T/C%) was the percentage value of the relative tumor volume between a treatment group and the control group at a certain time point, or the percentage value of the tumor weight between a treatment group and the control group. The calculation formula was: T/C% = TRTV / CRTV × 100% (TRTV: the average RTV of the treatment group; CRTV: the average RTV of the solvent control group; RTV = Vt / V0, wherein V0 is the tumor volume of the animal at the time of grouping, and Vt is the tumor volume of the animal after treatment); or T/C% = TTW / CTW × 100% (TTW: the average tumor weight at the end of the assay in the treatment group; CTW: the average tumor weight at the end of the assay in the solvent control group).
Statistical analysis: To compare the tumor volume on a given day across the different treatment groups, we first used the Bartlett's test to verify the assumption of homogeneity of variance among all the groups. When the p-value of the Bartlett's test was not less than 0.05, one-way ANOVA was used to test whether the means of all the groups were equal. If the p-value of the one-way ANOVA was less than 0.05, we would use the Tukey's HSD test for the pairwise comparisons between all the groups, or use the Dunnett's test for a pairwise comparison between each treatment group and the control group. When the p-value of the Bartlett's test was less than 0.05, the Kruskal-Wallis test was used to test whether the medians of all the groups were equal. […]

[3] = system: Ba/F3 (EML4-ALK G1202R) cell line; experiment: Anti-tumor effect in subcutaneous transplanted Ba/F3 (EML4-ALK G1202R) model; assay type: in vivo, NOD-SCID mice; settings: for average tumor volume: 16th day after administration
Text: Example 2: The anti-tumor effect in the subcutaneous transplanted animal model of Ba/F3 (EML4-ALK G1202R) cell line in female NOD-SCID mice.
Laboratory animals: NOD-SCID mice, female, 7 to 8 weeks old (the age of mice at tumor cell inoculation), weighing 16.0 to 20.3 g, and 50 mice (with additional 30 surplus mice). […] Housing environment: SPF grade.
Environmental conditions of the housing room of the laboratory animals: All the laboratory animals were housed in individually ventilated cages with constant temperature and constant humidity. The temperature of the housing room was 20 to 26 °C, the humidity was 40 to 70%, the ventilation was 10 to 20 times/hour, and the day/night light/dark cycle was 12h/12h. The animals were continuously provided with cobalt-60 irradiated complete pelleted mouse feed with unlimited free access. The animals drank tap water (used after being autoclaved), which was provided continuously from water bottles, allowing for free access. The cages for raising the mice were polysulfone mice cages, which were autoclaved before use, and measured 325 mm × 210 mm × 180 mm. The bedding was autoclaved corn cobs. Each cage contained 5 animals. […] The laboratory animals were marked with ear tags or ear labels.
Cell culture: Ba/F3 (EML4-ALK G1202R) cells (cell number: ECL-00031) were cultured in RPMI 1640 culture medium containing 10% fetal bovine serum. The Ba/F3 (EML4-ALK G1202R) cells in the exponential growth phase were collected, resuspended in PBS to a suitable concentration, and then subcutaneously inoculated for tumor formation.
Assay method: Female NOD/SCID mice were subcutaneously inoculated with 2×10^6 Ba/F3 (EML4-ALK G1202R) cells on the right side to establish a subcutaneous tumor transplantation model. […] The mice were administered orally via gavage once daily. The efficacy was evaluated based on the relative tumor growth inhibition rate (TGI), and the safety was evaluated based on the changes in the body weight and mortality of the animals.
as §1
The relative tumor growth rate (T/C%) was the percentage value of the relative tumor volume between a treatment group and the control group at a certain time point, or the percentage value of the tumor weight between a treatment group and the control group. […]

ALK fusion = experiment: Phase I clinical trial: biomarker analysis of 26 subjects previously treated with at least one ALK inhibitor
[4] = Phase II single-arm trial: safety analysis; assay type: in vivo; settings: 60 mg QD
Text: Once a subject met the criteria for the discontinuation of the treatment/withdrawal from the treatment and discontinued the medication, the subject entered a 4-week safety follow-up period. If other anti-tumor therapies were used during the safety follow-up period, a safety follow-up visit and inspection must be completed before starting the other anti-tumor therapies. For the unresolved adverse event or abnormal laboratory test, the follow-up continued until the event was resolved, the subject returned to the baseline status, the condition stabilized, a reasonable explanation was obtained, or the subject was lost to follow-up or died.

[5] = 158 subjects, cutoff May 20, 2024
[6] = whole-body, full analysis set (N=158)
[7] = bypass signaling alteration BRCA1
[8] = bypass signaling alteration BRCA2
[9] = bypass signaling alteration CCNE1
[10] = bypass signaling alteration CDKN2A
[11] = bypass signaling alteration EGFR
[12] = bypass signaling alteration IGF1R
[13] = bypass signaling alteration KIT
[14] = bypass signaling alteration MET
[15] = bypass signaling alteration RB1
[16] = bypass signaling alteration TP53

[2H]C([2H])([2H])n1nc2c(c1C#N)-c1cnc(N)c(c1)O[C@H](C)c1cc(F)ccc1C(=O)N(C)C2 [compound A, (10R)-7-amino-12-fluoro-2-(methyl-d3)-10,16-dimethyl-15-oxo-10,15,16,17-tetrahydro-2H-8,4-(metheno)pyrazolo[4,3-h][2,5,11]benzoxadiazacyclotetradecine-3-carbonitrile]
median DOR [1, 5]: not yet reached | median PFS [1, 5]: 11.14 months | median TTR [1, 5]: 1.38 months | ORR ([1]; subgroup ECOG PS score of 0 at baseline, FAS): 50.0% | ORR ([1]; subgroup ECOG PS score of 1 to 2 at baseline, FAS): 40.8% | ORR ([1]; subgroup age < 65 years old, FAS): 43.0% | ORR ([1]; subgroup age ≥ 65 years old, FAS): 40.0% | ORR ([1]; subgroup female, FAS): 42.9% | ORR ([1]; subgroup male, FAS): 41.9% | ORR ([1]; subgroup never received chemotherapy, FAS): 45.4% | ORR ([1]; subgroup previously received chemotherapy, FAS): 37.7% | ORR ([1]; subgroup with a smoking history, FAS): 38.6% | ORR ([1]; subgroup with brain metastases at baseline, FAS): 45.3% | ORR ([1]; subgroup without a smoking history, FAS): 39.4% | ORR ([1]; subgroup without brain metastases at baseline, FAS): 38.9% | BOR CR [1, 6]: 0 n (%) | BOR NE [1, 6]: 2 (1.3) n (%) | BOR PD [1, 6]: 25 (15.8) n (%) | BOR PR [1, 6]: 67 n (%) and 67 (42.4) n (%) | BOR SD [1, 6]: 64 (40.5) n (%) | DCR [1, 6]: 131 (82.9) n (%) | ORR [1, 6]: 67 n (%) and 67 (42.4) n (%) | average tumor volume ([2]; 1.5 mg/kg p.o. once daily): 1334.38 mm^3 | average tumor volume ([2]; 5 mg/kg p.o. once daily): 305.46 mm^3 | average tumor volume ([2]; 15 mg/kg p.o. once daily): 0 mm^3 | tumor-bearing mice with tumor volume reduced to 0 ([2]; 15 mg/kg, end of the assay): 10/10 | average tumor volume ([3]; 1.5 mg/kg p.o. once daily): 2139.18 mm^3 | average tumor volume ([3]; 5 mg/kg p.o. once daily): 576.11 mm^3 | average tumor volume ([3]; 15 mg/kg p.o. once daily): 0.25 mm^3 | tumor-bearing mice with tumor volume reduced to 0 ([3]; 15 mg/kg, end of the assay): 9/10 | PFS, mutant TP53 versus wild-type TP53 (ALK fusion; ALK TKI resistance subgroup, P=0.235): no difference | Disease control rate (CR + PR + SD) (ALK fusion; ALK fusion (all 26 subjects)): 20/26 | Overall response rate (CR + PR) (ALK fusion; ALK fusion (all 26 subjects)): 11/26 | Partial response (ALK fusion; ALK fusion (all 26 subjects)): 11 and 11/26 | Progressive disease (ALK fusion; ALK fusion (all 26 subjects)): 6/26 | Stable disease (ALK fusion; ALK fusion (all 26 subjects)): 9/26 | Disease control rate (CR + PR + SD) (ALK fusion; ALK fusion V1): 4/6 | Overall response rate (CR + PR) (ALK fusion; ALK fusion V1): 2/6 | Partial response (ALK fusion; ALK fusion V1): 2/6 | Progressive disease (ALK fusion; ALK fusion V1): 2/6 | Stable disease (ALK fusion; ALK fusion V1): 2/6 | Disease control rate (CR + PR + SD) (ALK fusion; ALK fusion V2): 3/3 | Overall response rate (CR + PR) (ALK fusion; ALK fusion V2): 1/3 | Partial response (ALK fusion; ALK fusion V2): 1/3 | Progressive disease (ALK fusion; ALK fusion V2): 0/3 | Stable disease (ALK fusion; ALK fusion V2): 2/3 | Disease control rate (CR + PR + SD) (ALK fusion; ALK fusion V3): 7/8 | Overall response rate (CR + PR) (ALK fusion; ALK fusion V3): 5/8 | Partial response (ALK fusion; ALK fusion V3): 5/8 | Progressive disease (ALK fusion; ALK fusion V3): 1/8 | Stable disease (ALK fusion; ALK fusion V3): 2/8 | Disease control rate (CR + PR + SD) (ALK fusion; ALK fusion V5): 1/1 | Overall response rate (CR + PR) (ALK fusion; ALK fusion V5): 1/1 | Partial response (ALK fusion; ALK fusion V5): 1/1 | Progressive disease (ALK fusion; ALK fusion V5): 0/1 | Stable disease (ALK fusion; ALK fusion V5): 0/1 | Disease control rate (CR + PR + SD) (ALK fusion; ALK fusion others): 5/8 | Overall response rate (CR + PR) (ALK fusion; ALK fusion others): 2/8 | Partial response (ALK fusion; ALK fusion others): 2/8 | Progressive disease (ALK fusion; ALK fusion others): 3/8 | Stable disease (ALK fusion; ALK fusion others): 3/8 | Disease control rate (CR + PR + SD) (ALK fusion; ALK mutation (any)): 10/12 | Overall response rate (CR + PR) (ALK fusion; ALK mutation (any)): 5/12 | Partial response (ALK fusion; ALK mutation (any)): 5/12 | Progressive disease (ALK fusion; ALK mutation (any)): 2/12 | Stable disease (ALK fusion; ALK mutation (any)): 5/12 | Disease control rate (CR + PR + SD) (ALK fusion; ALK mutation p.E1210K p.D1203N): 0/1 | Overall response rate (CR + PR) (ALK fusion; ALK mutation p.E1210K p.D1203N): 0/1 | Partial response (ALK fusion; ALK mutation p.E1210K p.D1203N): 0/1 | Progressive disease (ALK fusion; ALK mutation p.E1210K p.D1203N): 1/1 | Stable disease (ALK fusion; ALK mutation p.E1210K p.D1203N): 0/1 | Disease control rate (CR + PR + SD) (ALK fusion; ALK mutation p.G1202R): 5/6 | Overall response rate (CR + PR) (ALK fusion; ALK mutation p.G1202R): 3/6 | Partial response (ALK fusion; ALK mutation p.G1202R): 3/6 | Progressive disease (ALK fusion; ALK mutation p.G1202R): 1/6 | Stable disease (ALK fusion; ALK mutation p.G1202R): 2/6 | Disease control rate (CR + PR + SD) (ALK fusion; ALK mutation p.I1171N): 1/1 | Overall response rate (CR + PR) (ALK fusion; ALK mutation p.I1171N): 0/1 | Partial response (ALK fusion; ALK mutation p.I1171N): 0/1 | Progressive disease (ALK fusion; ALK mutation p.I1171N): 0/1 | Stable disease (ALK fusion; ALK mutation p.I1171N): 1/1 | Disease control rate (CR + PR + SD) (ALK fusion; ALK mutation p.I1171T): 1/1 | Overall response rate (CR + PR) (ALK fusion; ALK mutation p.I1171T): 0/1 | Partial response (ALK fusion; ALK mutation p.I1171T): 0/1 | Progressive disease (ALK fusion; ALK mutation p.I1171T): 0/1 | Stable disease (ALK fusion; ALK mutation p.I1171T): 1/1 | Disease control rate (CR + PR + SD) (ALK fusion; [7]): 0/1 | Overall response rate (CR + PR) (ALK fusion; [7]): 0/1 | Partial response (ALK fusion; [7]): 0/1 | Progressive disease (ALK fusion; [7]): 1/1 | Stable disease (ALK fusion; [7]): 0/1 | Disease control rate (CR + PR + SD) (ALK fusion; [8]): 1/1 | Overall response rate (CR + PR) (ALK fusion; [8]): 1/1 | Partial response (ALK fusion; [8]): 1/1 | Progressive disease (ALK fusion; [8]): 0/1 | Stable disease (ALK fusion; [8]): 0/1 | Disease control rate (CR + PR + SD) (ALK fusion; [9]): 1/1 | Overall response rate (CR + PR) (ALK fusion; [9]): 1/1 | Partial response (ALK fusion; [9]): 1/1 | Progressive disease (ALK fusion; [9]): 0/1 | Stable disease (ALK fusion; [9]): 0/1 | Disease control rate (CR + PR + SD) (ALK fusion; [10]): 1/1 | Overall response rate (CR + PR) (ALK fusion; [10]): 0/1 | Partial response (ALK fusion; [10]): 0/1 | Progressive disease (ALK fusion; [10]): 0/1 | Stable disease (ALK fusion; [10]): 1/1 | Disease control rate (CR + PR + SD) (ALK fusion; [11]): 1/1 | Overall response rate (CR + PR) (ALK fusion; [11]): 0/1 | Partial response (ALK fusion; [11]): 0/1 | Progressive disease (ALK fusion; [11]): 0/1 | Stable disease (ALK fusion; [11]): 1/1 | Disease control rate (CR + PR + SD) (ALK fusion; [12]): 0/1 | Overall response rate (CR + PR) (ALK fusion; [12]): 0/1 | Partial response (ALK fusion; [12]): 0/1 | Progressive disease (ALK fusion; [12]): 1/1 | Stable disease (ALK fusion; [12]): 0/1 | Disease control rate (CR + PR + SD) (ALK fusion; [13]): 1/1 | Overall response rate (CR + PR) (ALK fusion; [13]): 1/1 | Partial response (ALK fusion; [13]): 1/1 | Progressive disease (ALK fusion; [13]): 0/1 | Stable disease (ALK fusion; [13]): 0/1 | Disease control rate (CR + PR + SD) (ALK fusion; [14]): 2/2 | Overall response rate (CR + PR) (ALK fusion; [14]): 1/2 | Partial response (ALK fusion; [14]): 1/2 | Progressive disease (ALK fusion; [14]): 0/2 | Stable disease (ALK fusion; [14]): 1/2 | Disease control rate (CR + PR + SD) (ALK fusion; [15]): 0/1 | Overall response rate (CR + PR) (ALK fusion; [15]): 0/1 | Partial response (ALK fusion; [15]): 0/1 | Progressive disease (ALK fusion; [15]): 1/1 | Stable disease (ALK fusion; [15]): 0/1 | Disease control rate (CR + PR + SD) (ALK fusion; [16]): 7/9 | Overall response rate (CR + PR) (ALK fusion; [16]): 4/9 | Partial response (ALK fusion; [16]): 4/9 | Progressive disease (ALK fusion; [16]): 2/9 | Stable disease (ALK fusion; [16]): 3/9 | ORR (ALK fusion; subjects with G1202R mutation): 50% | ORR (ALK fusion; subjects with variant 1): 33.3% | ORR (ALK fusion; subjects with variant 3): 62.5% | common TRAEs [4]: hypercholesterolemia, hypertriglyceridemia, weight gain, anemia, and peripheral edema | incidence of TRAEs leading to dose reduction, temporary or permanent discontinuation of medication [4]: low
